Values quoted from earlier work, collected in patent US20250249020A1, “COLLOIDALLY STABLE HEME-ALBUMIN COMPLEXES AND METHODS OF MAKING AND USING THEREOF” (Ohio State Innovation Foundation, priority 2022, published 2025).

Target: Hpx
Conditions: heme binding, background

C=CC1=C(C)c2cc3[n-]c(cc4[n-]c(cc5nc(cc1n2)C(C)=C5C=C)c(C)c4CCC(=O)O)c(CCC(=O)O)c3C.[Fe+2] [heme]
Kd: ~10 nM
